Test results as given in patent publication US12485114B2, “Materials and methods useful to induce cancer cell death via methuosis or autophagy or a combination thereof” (The University of Toledo, priority 2017, dated 2025).

Key:
[1] = system: β-tubulin; test: β-tubulin expression and microtubules dynamics; assay type: cell-based; design: β-tubulin expression levels: dose or concentration left out as unconfirmed
[2] = system: colon, pancreatic, ovarian, lung, and prostate cancer cell lines; test: Vacuole accumulation in cancer cell lines; assay type: cell-based
From the text: The vacuoles are originated from macropinocytosomes as confirmed by extracellular fluid phase tracers. Vacuolization has been described previously as methuosis. However, the vacuoles induced here combine the characteristics of methuosis, autophagy, enhanced lysosomal activity, and other distinct characteristics.

[3] = system: HCT116, HCT116 Bax −/−, HCT116 Bak −/−, HCT116 Bax/Bak−/−; test: Death in apoptosis resistant colon cancer cell lines; assay type: cell-based; conditions: cell lines missing pro-apoptotic genes Bax and Bak
From the text: The cells became sensitive to the cytotoxicity of mitoxantrone when combined with BAPT-27. Further, BAPT-27 induced death in apoptosis resistant cell lines including colon cancer cell lines that are missing important pro-apoptotic genes Bax and Bak using well established models (HCT116, HCT116 Bax −/−, HCT116 Bak −/−, HCT116 Bax/Bak−/−). Accordingly, BAPT-27 represents a family of compounds that induce cell death in sensitive and resistant cancers, as well as those cancers that are refractory to death by conventional apoptosis inducing anticancer agents.

[4] = system: macropinocytosis; test: Lucifer yellow dye uptake (macropinocytosis); assay type: cell-based; conditions: 10 μM, 6 h treatment
From the text: BAPT-27 induced vacuoles that combine both methuosis and autophagy characteristics. […] The author mechanism involved in this non-conventional cell death mechanism is a special type of […] that has been termed methuosis. The treatment of cells by BAPT-27 caused the displacement of the cytoplasm by vacuoles derived from macropinosomes. At early time points, the vacuoles are small in size. The small vacuoles then increase in number, and then fuse with each other over time forming larger vacuoles that cover the whole cytoplasm. Eventually, this causes a disturbance of the cell membrane and burst of the cells, release of fluids, detachment of cell, and death. […] Accordingly, alteration in both autophagic and methuosis mechanisms are involved in the BAPT-27 cell death process.

[5] = system: HCT116 cells; test: Electron microscopy of treated cells; assay type: cell-based
Method: The vacuoles are indicated by V in FIG. 31. The single membranes of the vacuoles are destroyed (indicated by arrows in FIG. 31), allowing small vacuoles to merge, forming bigger vacuoles.
The vacuoles are fluid filled with traces of membranes due to vacuoles fusion events. The nuclei are healthy with no signs of chromatin condensation and are unaffected at even a high concentration (30 μM). However, as the vacuoles coalesce and grow in size, the nuclei are pushed on the edges of the cells. The nuclei are indicated by white N, and the vacuoles are indicated by black arrows, in FIG. 32.
(FIG. 38). The ER is indicated by black arrows.

[6] = system: cancer cells; test: Vacuoles formation and cell death with necroptosis inhibitor necrostatin-1; assay type: cell-based; conditions: necrostatin-1 up to 30 μM
Method: BAPT-27 induces a type of death that is also independent of necrosis or necroptosis. The vacuoles formation and cell death was not inhibited by the addition of necrostatin-1, a necroptosis inhibitor, even at high concentrations (up to 30 μM).
BAPT-27 induces a type of death that is independent of necrosis or necroptosis. The vacuoles formation and cell death was not inhibited by the addition of necrostatin-1, a necroptosis inhibitor, even at high concentrations (up to 30 μM). (FIG. 44).

[7] = system: HCT-116 cells; test: 3D transmission electron tomography of lysosomes; assay type: cell-based
From the text: The 3D reconstruction was loaded into the Avizo 3D Visualization software to reveal lysosomal structure through volume rendering and segmentation. FIGS. 50B-50C show increased autophagic vesicles (yellow) and increased lysosomal cargo (green).
(FIG. 50A & FIG. 50B & FIG. 50C).

[8] = system: zebrafish; test: Safety in zebrafish; assay type: in vivo; conditions: 100 μM
Method: The safety of BAPT-27 was studied in zebrafish. BAPT-27 is safe in zebrafish even at a very high concentration of 100 μM. The fish were healthy with no changes in their morphology, swim positions, or their cardiac parameters. (FIG. 52).

[9] = system: C57BL/6 mice; test: Safety studies in C57BL/6 mice; assay type: in vivo
Method: FIG. 53A: C57BL/6J mice (8-10 weeks old) were treated intraperitoneally with indicated concentration of BAPT-27 or vehicle (saline) for 14 days. At the end of 14 days, blood was collected in heparin-coated tubes for blood chemistry analysis using abaxis veterinary chemistry analyzer (VETSCAN vs2).
FIG. 53B: Representative immunohistochemical slides are shown for kidney, liver, heart and brain for C57BL/6mice treated intraperitoneally with vehicle (saline) or BAPT-27 at 86.6 mg/kg. The whole tissue section and 10× magnification slides are shown.

[10] = system: cancer cells; test: Loss of viability and non-apoptotic cell death assessment (nuclei, electron microscopy, annexin, z-VAD-fmk); assay type: cell-based
Method: Cells treated with BAPT-27 lose their viability within 72 h. […] Through electron microscopy there were clearly no signs of apoptosis (i.e., cell shrinkage, nuclear condensation, blebbing) seen.

Sc1nnc(-c2ccncc2)n1/N=C/c1c[nH]c2ccccc12 [BAPT-27, 4-(((1H-Indol-3-Yl)Methylene)Amino)-5-(Pyridin-4-Yl)-4H-1,2,4-Triazole-3-Thiol]
β-tubulin expression levels [1]: no significant change
microtubules dynamics ([1]; 24 h): significant disturbance
accumulation of fluid filled-cytoplasmic vacuoles [2]: induces the rapid accumulation of extensive fluid filled-cytoplasmic vacuoles
cell death in apoptosis resistant cell lines [3]: induced death
Lucifer yellow dye in formed vacuoles [4]: Extensive accumulation
formation of single membrane vacuoles (electron microscopy) ([5]; 10 μM): extensive formation of single membrane vacuoles
state of nuclei (electron microscopy) ([5]; high concentration (30 μM)): unaffected
state of endoplasmic reticulum (electron microscopy) ([5]; highest concentration 100 μM): normal and not stressed
inhibition of vacuoles formation and cell death by necrostatin-1 [6]: not inhibited
autophagic vesicles and lysosomal cargo [7]: increased autophagic vesicles and increased lysosomal cargo
lysosomal size [7]: significant increase in lysosomal size
changes in morphology, swim positions, or cardiac parameters [8]: no changes
safety in zebrafish [8]: safe
safety in mice ([9]; 86.6 mg/kg given intraperitoneally): safe
behavioral or phenotypic toxicity ([9]; up to 14 days): no behavioral or phenotypic toxicity
alteration in the intrinsic apoptotic pathways (proapoptotic and antiapoptotic proteins) [10]: no alteration
annexin fluorescence [10]: not changed
apoptotic changes of nuclei (chromatin condensation or DNA fragmentation) [10]: no apoptotic changes
protection from death by pan-caspase inhibitor z-VAD-fmk [10]: did not protect the cells from death
time to loss of viability ([10]; cells treated with BAPT-27): ≤ 72 h
cells observed to have died through apoptosis ([10]; electron microscopy, very high concentration): one in 100 cells
block of vacuoles formation by z-VAD ([10]; z-VAD 100 μM, BAPT-27 10 μM, 24 h and 72 hr): does not block
